In patent US9873693B2 (Sunesis Pharmaceuticals, Inc., priority 2006, dated 2018):
Where two headings read alike, the source gives them in different places.

Experiments:
phosphorylated PDK1 = phosphorylated PDK1 (Homo sapiens (Human), UniProt O15530); assay: PDK1 kinase assay (coupled PDK1/AKT/FAM-crosstide, IMAP); assay type: biochemical; details: 0.5 nM phosphorylated PDK1, 24 μM ATP; read-out: Inhibition of phospo-PDK1 in vitro IC50
phospho-akt (Thr308) = phospho-akt (Thr308) MSD ELISA in PC-3 cells; assay type: cell-based; details: Homo sapiens; for EC50: PC-3, 2 h; for inhibition at 1 µM / inhibition at 10 µM: read-out: Percent Inhibition of phospho-Akt (308) By MSD ELISA
Method: PC-3 cells were harvested by trypsin and counted. Cells were plated in coated 96-well flat bottom plates (plate 15,000 cells/well in 100 ul growth media (10% FBS, 1× pen-strep) an place in an incubator overnight.
Subject inhibitors were stocked at 50 mM, then diluted to 30 mM (4.8 μl cpd plus […] DMSO) in 100% DMSO. Three-fold dilutions were performed from 30 mM stock. (4 μl into 8 ul 100% DMSO). Aliquots of 1.0 μl of inhibitor solution were transferred into SF Medium (using deep well block).
Control wells were prepared as follows. For DMSO high controls, 1.0 μl of 100% DMSO was added into 1.0 ml SF.
MSD plates were blocked for 1 hour by adding 150 μl of Blocking Solution (3% BSA) to each well. The MSD plates were washed 4× with TBST, and 50 μl lysates were transferred to MSD plate and place on plate shaker shake at 4 degrees O/N, light shaking (speed 3.5). The plate was washed 4× with TBST.
25 μl of Ab detection solution was added to each well. The plate was sealed and incubated 1 hr RT, light shaking (speed 3.5). The plate was washed 4 times with TBST. 150 μl of Read Buffer was added (5 mls 4×MSD Read Buffer+15 mls water). Finally the plate was read immediately on the MSD plate reader.

[1] = PC-3 cells, 2 hours, no serum, read-out: Inhibition of P308 Akt in cells using MSD EC50
[2] = read-out: Inhibition of P308 Akt in cells using MSD EC50
[3] = PC-3 cells, 2 hours, no serum, read-out: Reduction of Cellular Levels of Akt p308 By MSD ELISA (EC50 μM)

phosphorylated PDK1, sequence (O15530 51-360): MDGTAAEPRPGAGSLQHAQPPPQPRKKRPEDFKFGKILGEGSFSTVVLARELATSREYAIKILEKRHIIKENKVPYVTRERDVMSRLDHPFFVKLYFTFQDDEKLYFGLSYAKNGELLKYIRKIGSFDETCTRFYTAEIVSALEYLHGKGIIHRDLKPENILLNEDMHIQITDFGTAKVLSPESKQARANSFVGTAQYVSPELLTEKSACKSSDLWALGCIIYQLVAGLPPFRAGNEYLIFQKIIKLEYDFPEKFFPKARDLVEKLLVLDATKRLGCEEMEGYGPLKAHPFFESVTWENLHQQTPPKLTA

Row | Structure (SMILES) | IC50 (phosphorylated PDK1) | EC50 (phospho-akt (Thr308); [1]) | EC50 (phospho-akt (Thr308); [2]) | EC50 (phospho-akt (Thr308); [3]) | inhibition at 1 µM (phospho-akt (Thr308); PC-3 cells) | inhibition at 10 µM (phospho-akt (Thr308); PC-3 cells)
1 | O=C(NCc1cc(-c2c[nH]c3ncccc23)ccn1)c1cccn(Cc2ccc(F)c(F)c2)c1=O [Cpd 164] | < 500 nM | < 1 µM |  |  |  | 
2 | O=C(NCc1cc(-c2c[nH]c3ncccc23)c[n+]([O-])c1)c1cccn(Cc2ccc(F)c(F)c2)c1=O [Cpd 165] | < 500 nM | > 5 µM |  |  |  | 
3 | O=C(N[C@@H](COc1ccc2[nH]c(=O)[nH]c2c1)c1ccccc1)c1cccn(Cc2cc(F)c(F)c(F)c2)c1=O [Cpd 174] | < 500 nM |  | 1 to 5 µM |  |  | 
4 | O=C(N[C@@H](COc1ccc2[nH]c(=O)[nH]c2c1F)c1ccccc1)c1cccn(Cc2cc(F)c(F)c(F)c2)c1=O [Cpd 177] | < 500 nM | < 1 µM |  |  |  | 
5 | CNC(=O)c1cc(-c2c[nH]c3ncccc23)cc(CNC(=O)c2cccn(Cc3ccc(F)c(F)c3)c2=O)n1 [Cpd 180] | < 500 nM | < 1 µM |  |  |  | 
6 | CN(C)C(=O)c1cc(-c2c[nH]c3ncccc23)cc(CNC(=O)c2cccn(Cc3ccc(F)c(F)c3)c2=O)n1 [Cpd 181] | < 500 nM | 1 to 5 µM |  |  |  | 
7 | O=C(N[C@@H](/C=C/c1ccc2[nH]c(=O)[nH]c2c1)c1ccccc1)c1cccn(Cc2cc(F)c(F)c(F)c2)c1=O [Cpd 183] | < 500 nM |  | 1 to 5 µM |  |  | 
8 | O=C(NCc1noc(-c2c[nH]c3ncccc23)n1)c1cc([N+](=O)[O-])cn(Cc2cc(F)c(F)c(F)c2)c1=O [Cpd 184] | < 500 nM | 1 to 5 µM |  |  |  | 
9 | O=C(NC(COc1ccc2[nH]c(=O)[nH]c2c1)c1ccc(OCc2ccccc2)cc1)c1cccn(Cc2cc(F)c(F)c(F)c2)c1=O (stereo not drawn) [Cpd 186] | < 500 nM |  | > 5 µM |  |  | 
10 | O=C(NC(COc1ccc2[nH]c(=O)[nH]c2c1)c1ccc(O)cc1)c1cccn(Cc2cc(F)c(F)c(F)c2)c1=O (stereo not drawn) [Cpd 188] | < 500 nM | 1 to 5 µM |  |  |  | 
11 | CC(=O)Oc1ccc(C(COc2ccc3[nH]c(=O)[nH]c3c2)NC(=O)c2cccn(Cc3cc(F)c(F)c(F)c3)c2=O)cc1 (stereo not drawn) [Cpd 189] | < 500 nM | < 1 µM |  |  |  | 
12 | O=C(N[C@@H](COc1ccc2[nH]c(=O)[nH]c2c1)c1ccsc1)c1cccn(Cc2ccc(F)c(F)c2)c1=O [Cpd 190] | < 500 nM | < 1 µM |  |  |  | 
13 | N#Cc1cc(-c2c[nH]c3ncccc23)cc(CNC(=O)c2cccn(Cc3ccc(F)c(F)c3)c2=O)n1 [Cpd 191] | < 500 nM |  | < 1 µM |  |  | 
14 | O=C(N[C@@H](COc1ccc2[nH]c(=O)[nH]c2c1)c1cccs1)c1cccn(Cc2ccc(F)c(F)c2)c1=O [Cpd 192] | < 500 nM | < 1 µM |  |  |  | 
15 | O=C1Nc2cc(/C=C/CNC(=O)c3cccn(Cc4cc(F)c(F)c(F)c4)c3=O)ccc2/C1=C\c1cccnc1 [Cpd 194] | < 500 nM | < 1 µM |  |  |  | 
16 | O=C1Nc2cc(/C=C/CNC(=O)c3cccn(Cc4cc(F)c(F)c(F)c4)c3=O)ccc2/C1=C/c1ncc[nH]1 [Cpd 195] | < 500 nM | < 1 µM |  |  |  | 
17 | O=C(NCc1cc(-c2c[nH]c3ncccc23)cc(CO)n1)c1cccn(Cc2ccc(F)c(F)c2)c1=O [Cpd 196] | < 500 nM | 1 to 5 µM |  |  |  | 
18 | O=C1Nc2cc(/C=C/CNC(=O)c3cc(Cl)cn(Cc4cc(F)c(F)c(F)c4)c3=O)ccc2/C1=C/c1ncc[nH]1 [Cpd 197] | < 500 nM | < 1 µM |  |  |  | 
19 | O=C1Nc2cc(/C=C/CNC(=O)c3cccn(Cc4cc(F)c(F)c(F)c4)c3=O)ccc2/C1=C/c1cccs1 [Cpd 198] | < 500 nM | 1 to 5 µM |  |  |  | 
20 | O=C1Nc2cc(/C=C/CNC(=O)c3cccn(Cc4ccc(F)c(F)c4)c3=O)ccc2/C1=C/c1ncc[nH]1 [Cpd 199] | < 500 nM | < 1 µM |  |  |  | 
21 | O=C1Nc2cc(/C=C/CNC(=O)c3cccn(Cc4ccc(F)c(F)c4)c3=O)ccc2/C1=C\c1cccnc1 [Cpd 200] | < 500 nM | 1 to 5 µM |  |  |  | 
22 | O=C1Nc2cc(/C=C/CNC(=O)c3cccn(Cc4cc(F)c(F)c(F)c4)c3=O)ccc2/C1=C\c1ccc(O)cc1 [Cpd 201] | < 500 nM | < 1 µM |  |  |  | 

Row | Structure (SMILES) | IC50 (phosphorylated PDK1) | EC50 (phospho-akt (Thr308); [1]) | EC50 (phospho-akt (Thr308); [2]) | EC50 (phospho-akt (Thr308); [3]) | inhibition at 1 µM (phospho-akt (Thr308); PC-3 cells) | inhibition at 10 µM (phospho-akt (Thr308); PC-3 cells)
23 | O=C1Nc2cc(/C=C/CNC(=O)c3cccn(Cc4cc(F)c(F)c(F)c4)c3=O)ccc2/C1=C\c1nccs1 [Cpd 202] | < 500 nM | 1 to 5 µM |  |  |  | 
24 | O=C1Nc2cc(/C=C/CNC(=O)c3cccn(Cc4cc(F)c(F)c(F)c4)c3=O)ccc2/C1=C/c1nccs1 [Cpd 203] | < 500 nM | 1 to 5 µM |  |  |  | 
25 | CC(C)=C1C(=O)Nc2cc(/C=C/CNC(=O)c3cccn(Cc4cc(F)c(F)c(F)c4)c3=O)ccc21 [Cpd 204] | < 500 nM | 1 to 5 µM |  |  |  | 
26 | CC(C)/C=C1/C(=O)Nc2cc(/C=C/CNC(=O)c3cccn(Cc4cc(F)c(F)c(F)c4)c3=O)ccc21 [Cpd 205] | < 500 nM | > 5 µM |  |  |  | 
27 | O=C(NCc1cc(-c2c[nH]c3ncccc23)cc(C(F)F)n1)c1cccn(Cc2ccc(F)c(F)c2)c1=O [Cpd 208] | < 500 nM | < 1 µM |  |  |  | 
28 | O=C1Nc2cc(/C=C/CNC(=O)c3cccn(Cc4cc(F)c(F)c(F)c4)c3=O)ccc2/C1=C\c1ccccc1 [Cpd 209] | < 500 nM | > 5 µM |  |  |  | 
29 | O=C1Nc2cc(/C=C/CNC(=O)c3cccn(Cc4cc(F)c(F)c(F)c4)c3=O)ccc2/C1=C/c1cnc[nH]1 [Cpd 212] | < 500 nM | 1 to 5 µM |  |  |  | 
30 | CNC(=O)c1cnc2[nH]cc(-c3cccc(CNC(=O)c4cccn(Cc5ccc(F)c(F)c5)c4=O)c3)c2c1 [Cpd 239] | < 500 nM | 1 to 5 µM |  | < 1 µM |  | 
31 | O=C1CCc2c(ncnc2-c2cccc(CNC(=O)c3cccn(Cc4ccc(F)c(F)c4)c3=O)c2)N1 [Cpd 240] | > 10000 nM |  |  | 1 to 5 µM | < 25% | < 25%
32 | O=C(NCc1cccc(-c2c[nH]c3cccnc23)c1)c1cccn(Cc2ccc(F)c(F)c2)c1=O [Cpd 241] | 500 to 10000 nM |  |  |  | < 25% | 25 to 75%
33 | NCc1cnc2[nH]cc(-c3cccc(CNC(=O)c4cccn(Cc5ccc(F)c(F)c5)c4=O)c3)c2c1 [Cpd 243] | < 500 nM | < 1 µM |  | 1 to 5 µM |  | 
34 | N#Cc1cnc2[nH]cc(-c3cccc(CNC(=O)c4cccn(Cc5ccc(F)c(F)c5)c4=O)c3)c2c1 [Cpd 244] | < 500 nM | < 1 µM |  | < 1 µM |  | 
35 | O=C(Nc1n[nH]c2ccc(-c3c[nH]c4ncccc34)cc12)c1cccn(Cc2ccc(F)c(F)c2)c1=O [Cpd 245] | < 500 nM | 1 to 5 µM |  |  |  | 
36 | O=C(NCc1cc(-c2c[nH]c3ncccc23)ccc1F)c1cccn(Cc2ccc(F)c(F)c2)c1=O [Cpd 278] | < 500 nM |  |  |  | < 25% | 25 to 75%
37 | O=C(N[C@H](CO)c1nnc(-c2c[nH]c3ncccc23)o1)c1cccn(Cc2ccc(F)c(F)c2)c1=O [Cpd 284] | < 500 nM | 1 to 5 µM |  | 1 to 5 µM |  | 
38 | O=C(NCc1ccnc(-c2c[nH]c3ncccc23)c1)c1cccn(Cc2ccc(F)c(F)c2)c1=O [Cpd 285] | < 500 nM | 1 to 5 µM |  | 1 to 5 µM |  | 
39 | O=C(NCc1noc(-c2c[nH]c3ncccc23)n1)c1cccn(Cc2ccc(Cl)c(Cl)c2)c1=O [Cpd 312] | < 500 nM | 1 to 5 µM |  |  | 25 to 75% | > 75%
40 | C[C@@H](c1ccc(Cl)cc1)n1cc(Cl)cc(C(=O)NCc2noc(-c3c[nH]c4ncccc34)n2)c1=O [Cpd 315] | < 500 nM | < 1 µM |  |  | 25 to 75% | > 75%
41 | O=C(NCc1cccc(-c2c[nH]c3ncccc23)c1)c1cccn(Cc2ccc(Cl)c(Cl)c2)c1=O [Cpd 324] | < 500 nM | > 5 µM |  | > 5 µM |  | 
42 | O=C(NCc1cccc(-c2c[nH]c3ncc(Br)cc23)c1)c1cccn(Cc2ccc(F)c(F)c2)c1=O [Cpd 330] | < 500 nM | 1 to 5 µM |  |  |  | 
43 | O=C(NCc1cccc(-c2c[nH]c3ncc(-c4ccsc4)cc23)c1)c1cccn(Cc2ccc(F)c(F)c2)c1=O [Cpd 331] | < 500 nM | 1 to 5 µM |  |  |  | 
44 | O=C(NC(C(=O)O)c1ccc(-c2c[nH]c3ncccc23)s1)c1cccn(Cc2ccc(F)c(F)c2)c1=O (stereo not drawn) [Cpd 335] | 500 to 10000 nM |  |  | > 5 µM |  | 
